We go through 2 compounds from patent US6921840B1 (The Trustees of the University of Pennsylvania, priority 1999, dated 2005).

As a reminder, the IC50 is the concentration needed to halve the response being measured. The term Ki denotes the dissociation constant of the complex between target and ligand, obtained from inhibition or displacement.

One data set relates to serotonin transporters. Nature of the data set: SPECT imaging in baboons. Conditions: baboon, 120 minutes post-i.v. injection. An excerpt:
The acquisition of SPECT images were obtained by a triple-head gamma camera equipped with ultra high resolution fan-beam collimators (Picker Prism 3000). […] The projection images were reconstructed by filtered-back projection. Then, a 3D, low pass Butterworth filter was applied. For uniform attenuation correction, Chang's first order method was used.

Data set [1] in a line: In vitro stability of radioiodinated ligand. The conditions noted are these: prolonged standing (>20 hr) at 0-4° C. in saline solution. It counts as physicochemical.
In the next data set the target is T1, serotonin uptake (SERT) (Rattus norvegicus, UniProt P31652).
T1 construct: host or cells: rat brain synaptosomes
T1 sequence (P31652 whole entry): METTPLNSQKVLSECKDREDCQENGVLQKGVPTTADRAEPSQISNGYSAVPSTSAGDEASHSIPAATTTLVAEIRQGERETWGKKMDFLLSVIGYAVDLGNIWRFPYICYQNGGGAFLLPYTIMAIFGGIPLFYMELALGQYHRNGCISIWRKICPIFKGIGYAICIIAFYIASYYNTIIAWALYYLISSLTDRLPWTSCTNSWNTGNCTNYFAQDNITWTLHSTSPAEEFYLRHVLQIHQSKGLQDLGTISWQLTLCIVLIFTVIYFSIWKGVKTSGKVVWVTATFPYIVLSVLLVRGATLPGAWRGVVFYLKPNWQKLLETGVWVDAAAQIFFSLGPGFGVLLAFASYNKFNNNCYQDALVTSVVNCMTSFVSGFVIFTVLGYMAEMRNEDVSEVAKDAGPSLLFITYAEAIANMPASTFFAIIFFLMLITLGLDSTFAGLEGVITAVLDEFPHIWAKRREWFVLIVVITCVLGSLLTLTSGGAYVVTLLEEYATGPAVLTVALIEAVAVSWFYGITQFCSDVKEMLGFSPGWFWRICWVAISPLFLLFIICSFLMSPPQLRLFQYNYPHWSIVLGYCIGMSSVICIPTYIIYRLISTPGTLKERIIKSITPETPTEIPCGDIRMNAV
The conditions noted are these: taken from Ferris et al. 1995; read-out: IC50 for inhibition on substrate uptake, SERT; cited from earlier work.

The next data set addresses DAT (Rattus norvegicus, UniProt P23977). Conditions: taken from Ferris et al. 1995; read-out: IC50 for inhibition on substrate uptake, DAT; cited from earlier work.
The target in data set [2] is T2, norepinephrine uptake (NET) (Rattus norvegicus, UniProt Q63380).
T2 construct: host or cells: rat brain synaptosomes
T2 sequence (Q63380 1-617): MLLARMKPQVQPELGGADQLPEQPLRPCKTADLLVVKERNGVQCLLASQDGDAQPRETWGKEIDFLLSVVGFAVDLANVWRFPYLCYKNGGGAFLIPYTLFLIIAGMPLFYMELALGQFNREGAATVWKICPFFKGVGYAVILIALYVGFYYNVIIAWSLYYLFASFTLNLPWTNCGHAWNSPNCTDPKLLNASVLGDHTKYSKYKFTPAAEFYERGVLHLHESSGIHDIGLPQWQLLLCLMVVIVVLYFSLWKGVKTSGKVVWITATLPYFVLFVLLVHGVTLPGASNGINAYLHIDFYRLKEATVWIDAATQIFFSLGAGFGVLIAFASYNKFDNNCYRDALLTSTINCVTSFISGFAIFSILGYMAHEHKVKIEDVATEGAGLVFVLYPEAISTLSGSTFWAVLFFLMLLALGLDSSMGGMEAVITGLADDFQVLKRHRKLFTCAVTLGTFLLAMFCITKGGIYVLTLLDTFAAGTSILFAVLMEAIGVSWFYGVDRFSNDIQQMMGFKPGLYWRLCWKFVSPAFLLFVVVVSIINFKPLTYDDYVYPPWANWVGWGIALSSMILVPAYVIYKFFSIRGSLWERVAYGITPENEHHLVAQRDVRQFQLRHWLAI
Conditions: cited from earlier work.

Some results are limits rather than exact numbers.

Chain of DAT (P23977 whole entry): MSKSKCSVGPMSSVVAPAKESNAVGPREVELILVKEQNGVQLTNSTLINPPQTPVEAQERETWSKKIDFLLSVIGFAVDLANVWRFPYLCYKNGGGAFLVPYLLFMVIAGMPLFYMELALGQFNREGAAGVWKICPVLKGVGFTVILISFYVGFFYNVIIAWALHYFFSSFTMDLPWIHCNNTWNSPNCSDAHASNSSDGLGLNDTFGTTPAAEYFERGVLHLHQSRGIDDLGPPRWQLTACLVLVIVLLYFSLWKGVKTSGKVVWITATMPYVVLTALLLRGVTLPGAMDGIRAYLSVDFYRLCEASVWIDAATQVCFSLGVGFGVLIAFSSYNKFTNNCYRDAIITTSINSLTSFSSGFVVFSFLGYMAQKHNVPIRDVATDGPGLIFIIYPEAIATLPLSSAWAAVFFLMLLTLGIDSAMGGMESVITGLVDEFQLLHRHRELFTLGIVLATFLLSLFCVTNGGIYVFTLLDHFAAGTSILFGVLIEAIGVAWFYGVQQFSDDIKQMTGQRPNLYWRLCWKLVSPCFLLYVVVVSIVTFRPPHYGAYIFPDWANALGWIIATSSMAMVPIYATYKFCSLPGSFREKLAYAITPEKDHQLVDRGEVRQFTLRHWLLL

`CN(C)Cc1ccccc1Sc1ccc(I)cc1CO` [[^123I]IDAM]: in the data set on serotonin transporters, the “ratio of MB/CER uptake” value was determined as 2.4. Moreover, the in vitro stability entry in data set [1] is listed as “no decomposition observed”.

Turning to `CN(C)Cc1ccccc1Sc1ccc(Cl)cc1CO` [403U76, 5-chloro-2-((2-((dimethyl-amino)methyl)phenyl)thio)benzyl alcohol], the half-inhibitory concentration (IC50) at serotonin uptake (SERT) was 2.1 ± 0.4 nM; on DAT, greater than 1000 nM; in data set [2] (taken from Ferris et al. 1995, read-out: IC50 for inhibition on substrate uptake, NET) it was 55 ± 10 nM. Also, in data set [2] (rat brain synaptosomes), the Ki is 55 nM.
